Results as given in US5037739A, “N-acetylmannosamine dehydrogenase, process for its production, method for quantitatively analyzing N-acetylmannosamine or sialic acid, and kit for the quantitative analysis” (Noda Institute for Scientific Research, priority 1986, dated 1991).
Read-outs that look alike come from different tables or passages of the source.

Tests used:
[1] = molecular target: T1, N-AMDH (Flavobacterium sp., UniProt P22441); assay: Action and substrate-specificity of N-AMDH (substrates and electron acceptors); type: biochemical, Flavobacterium sp. No. 141-8; conditions: for Action of N-AMDH upon the sugar as substrate: in the presence of NAD
T1 construct: N-AMDH was accumulated in the bacterial cells; endogenous in cells; host or cells: Flavobacterium sp; No. 141-8 (natural producer isolated from soil); enzyme purified from the disrupted bacterial cells
T1 sequence (P22441 2-271 limits assumed): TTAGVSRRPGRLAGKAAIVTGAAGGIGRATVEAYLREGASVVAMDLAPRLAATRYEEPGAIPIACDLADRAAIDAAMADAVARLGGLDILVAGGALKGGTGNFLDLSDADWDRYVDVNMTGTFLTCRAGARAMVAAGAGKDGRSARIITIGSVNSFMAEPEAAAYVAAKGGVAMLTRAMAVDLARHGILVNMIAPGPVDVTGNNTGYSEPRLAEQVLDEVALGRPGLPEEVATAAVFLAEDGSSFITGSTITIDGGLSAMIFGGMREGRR
Method: In the presence of water, N-acetylmannosaminolactone is spontaneously hydrolyzed to form N-acetylmannosaminic acid. Accordingly, the reaction is substantially irreversible.
(§1) To 1.8 ml of 0.05M tris-hydrochloric acid buffer (pH 8.2) is added 0.1 ml of 60 mM NAD solution. After keeping the mixture at 37° C. for 10 minutes, 10 microliters of enzyme solution is added, and then 0.1 ml of 0.3M N-AM is added. By homogenizing the mixture, the reaction is started. The reaction mixture is immediately transferred into a light absorbance measurement cell (light path 1 cm) kept at 37° C., and absorbance is measured over a period of 5 minutes (if necessary, over a longer period of time) at intervals of one minute at a wavelength of 340 nm. A quantity of enzyme capable of forming 1 micromole of NADH in one minute is taken as one unit.

[2] = molecular target: T1, N-AMDH; assay: N-AMDH enzymatic activity in solutions containing metallic ions and inhibitors; type: biochemical, Flavobacterium sp. No. 141-8; conditions: for remaining activity at 2000 µM: read-out: Residual activity (%)
Method: The table presented above illustrates the enzymatic activity of N-AMDH measured in solutions containing various metallic ions and inhibitors at a concentration of 2 mM. There is known no substance making a particular contribution to its activation and stabilization.
as §1

[3] = test system: Flavobacterium sp. No. 141-8; assay: Growth resistance of the producing strain (penicillin, sodium chloride); type: cell-based
Description: (1) Penicillin resistance: Growth even at 100 units/ml.
(2) Sodium chloride resistance: No growth above 2%.

[4] = pH stability and heat stability (inactivation conditions) of N-AMDH; type: physicochemical, Flavobacterium sp. No. 141-8
Method: The buffer solutions used there are potassium phosphate buffer, tris-hydrochloric acid buffer and glycine-sodium hydroxide buffer.
At temperatures exceeding 45° C., it rapidly loses its activity. When heat treated at 45° C. for 10 minutes, it is stable at a pH of 8.5-9.5, while it is particularly instable at a pH value of 7 or below.

[5] = Acrylamide gel isoelectric focusing of N-AMDH; type: physicochemical, Flavobacterium sp. No. 141-8
Description: As measured by acrylamide gel isoelectric focusing, its isoelectric point is 4.9.

[6] = N-AMDH activity with metallic ion or inhibitor at 2 mM, None = 100
[7] = heat treated at 45° C. for 10 minutes

## CC(=O)N[C@H]1C(O)O[C@H](CO)[C@@H](O)[C@@H]1O (stereo partly shown) [N-acetylglucosamine]
[1]
  Action of N-AMDH upon the sugar as substrate: hardly acts or does not act at all

## O=S(=O)([O-])[O-].[Zn+2] [ZnSO4]
[2]; [6]
  Residual activity (%): 71%

## [Cl-].[Na+] [Sodium chloride]
[3]
  Sodium chloride resistance: concentration above which there is no growth: above 2%

## Oc1cccc2cccnc12 [8-Hydroxyquinoline]
[2]
  Residual activity (%): 95%

## Nc1ncnc2c1ncn2[C@@H]1O[C@H](COP(=O)(O)O)[C@@H](O)[C@H]1O [5'-AMP]
[2]; [6]
  remaining activity at 2000 µM: 76%

## CCCCCCCCCCCCOS(=O)(=O)O [SDS]
[2]; [6]
  remaining activity at 2000 µM: 18%

## CC1(C)S[C@@H]2[C@H](NC(=O)Cc3ccccc3)C(=O)N2[C@H]1C(=O)O [Penicillin]
[3]
  Penicillin resistance: concentration at which the strain still grows: ≥ 100 units/ml

## c1ccc(-c2ccccn2)nc1 [α,α'-Dipyridyl]
[2]; [6]
  remaining activity at 2000 µM: 97%

## N-acetylmannosamine dehydrogenase [N-AMDH]
[4]; FIG. 4, heat treated for minutes
  Temperature up to which activity is kept stable on heat treatment: ≤ 45 °C
[4]; [7]
  pH at which it is particularly instable when heat treated: ≤ 7
  pH at which it is stable when heat treated: 8.5-9.5
[5]
  Isoelectric point: 4.9

## CC(=O)N[C@@H]1C(O)O[C@H](CO)[C@@H](O)[C@@H]1O (stereo partly shown) [N-AM, N-acetylmannosamine]
[1]
  Action of N-AMDH upon the sugar as substrate: oxidizes N-AM into N-acetylmannoaminolactone

## O=C1C(Cl)=CC(=Nc2ccc(O)cc2)C=C1Cl [2,6-dichlorophenol indophenol]
[1]
  Utilization as electron acceptor by N-AMDH: hardly utilizes

## [Cl][Hg][Cl] [HgCl2]
[2]; [6]
  Residual activity (%): 6%

## O=C(O)CN(CCN(CC(=O)O)CC(=O)O)CC(=O)O [EDTA]
[2]
  remaining activity at 2000 µM: 89%

## O=S(=O)([O-])[O-].[Cu+2] [CuSO4]
[2]; [6]
  Residual activity (%): 79%

## CC(=O)N[C@H]1C(O)O[C@H](CO)[C@H](O)[C@@H]1O (stereo partly shown) [N-acetylgalactosamine]
[1]
  Action of N-AMDH upon the sugar as substrate: hardly acts or does not act at all

## [N-]=[N+]=[N-].[Na+] [NaN3]
[2]; [6]
  Residual activity (%): 83%

## O=C(CO)N[C@@H]1C(O)O[C@H](CO)[C@@H](O)[C@@H]1O (stereo partly shown) [N-glycolylmannosamine]
[1]
  Action of N-AMDH upon the sugar as substrate: acts upon N-glycolylmannosamine in the same manner as above

## NC(=O)c1ccc[n+]([C@@H]2O[C@H](COP(=O)([O-])OP(=O)(O)OC[C@H]3O[C@@H](n4cnc5c(N)ncnc54)[C@H](OP(=O)(O)O)[C@@H]3O)[C@@H](O)[C@H]2O)c1 [NADP, nicotinamide adenine dinucleotide phosphate]
[1]
  Utilization as electron acceptor by N-AMDH: hardly utilizes

## O=C(O)c1cc[c]([Hg][Cl])cc1 [PCMB]
[2]; [6]
  Residual activity (%): 95%

## NC(=O)CI [Iodoacetamide]
[2]; [6]
  remaining activity at 2000 µM: 87%

## c1cnc2c(c1)ccc1cccnc12 [o-Phenanthroline]
[2]; [6]
  remaining activity at 2000 µM: 87%

## O=S(=O)([O-])[O-].[Ni+2] [NiSO4]
[2]; [6]
  Residual activity (%): 69%
